Laboratory results taken from patent US5198433A, “Lactamimides as calcium antagonists” (Merrell Dow Pharmaceuticals Inc., priority 1992, dated 1993).

How the values were obtained:
[1] = molecular target: [^3 H]d-cis-diltiazem binding to rat whole brain membranes (calcium ion-channel protein); assay: [^3 H]d-cis-Diltiazem binding assay (displacement from rat whole brain membranes); design: species or system rat (male Sprague-Dawley); conditions: for IC50: ligand […]
Procedure: The whole brain from male Sprague-Dawley rats (200-300 g) was dissected and homogenized in cold 50 mM Tris-HCl buffer (pH 7.4) for 2 x 30 second periods by Polytron (Brinkmann, setting No. 5). The homogenate was washed 2 times (48,000 ×g for 10 minutes, 4° C.) with intermittent resuspension of the pellet in fresh buffer. The final pellet was resuspended to an original tissue concentration of 100 mg/ml in Tris-HCl buffer. […] The reaction was terminated by rapid filtration under a vacuum through 0.05% polyethylenimine-pretreated Whatman GF/B glass fiber filters. Filters were immediately washed 2 times with 4 ml of cold Tris-HCl buffer. Pretreatment of the filters with 0.05% polyethylenimine served to eliminate [^3 H]d-cis-diltiazem binding to the filter. The filters were dried and the radioactivity in the filters was extracted overnight in scintillation fluid.

[2] = molecular target: T1, [^3 H]nitrendipine binding to rat heart membranes (calcium ion-channel protein) (Rattus norvegicus, UniProt P22002); assay: [^3 H]Nitrendipine binding assay (enhancement of binding to rat heart membranes); design: species or system rat (male Sprague-Dawley); conditions: ligand 0.1 nM, mean ± SEM; for activity at 1 µM: 10^-6 M; for activity at 0.1 µM: 10^-7 M
T1 construct: Membranes were prepared from the hearts of male Sprague-Dawley rats; from tissue; host or cells: heart membranes of male Sprague-Dawley rats
Procedure: Membranes were prepared from the hearts of male Sprague-Dawley rats and [^3 H]nitrendipine binding was conducted as described in detail by H. R. Lee, et al., J. Pharmacol Exp. Ther. 233:611-616, (1985), as modified by F. J. Ehlert, et al., Biochem. Biophys. Rec. Common. 104:937-943, (1982). The ability of compounds tested at 10^-6 and 10^-7 M to enhance [^3 H]nitredepine binding was taken as indicative of diltiazem-like calcium antagonistic properties.
Values are the mean ± SEM of single experiments run in triplicate at
the concentrations of drugs indicated. Ligand concentration was 0.1 nM an
control specific binding was 49.6 ± 1.7 fmol/mg protein.

[3] = molecular target: T2, K^+ -depolarized guinea pig ileum or taenia (Cavia porcellus); assay: Antagonism of Ca^++ -induced contractions of K^+ -depolarized guinea pig taenia or ileum; type: cell-based; conditions: FIG. 6; 40 mM K^+ -depolarized guinea pig ileum
T2 construct: pieces of ileum, 2 cm in length, from male guinea pigs (200-400 g) were set up in isolated organ baths; from tissue; host or cells: strips of taenia from the caecum or pieces of ileum of male guinea pigs
Procedure: Strips of taenia from the caecum or pieces of ileum, 2 cm in length, from male guinea pigs (200-400 g) were set up in isolated organ baths in Ca^++ -free K^+ Tyrode's solution (mM NaCl 137, KCl 40, NaH2 PO4 0.4, NaHCO3 11.9, glucose 5.5) and gassed with 95% O2, 5% CO2 at 37° C. Contractions were measured with isotonic transducers with a 1 g load. Cumulative dose-response curves were obtained. Tissues were then washed and incubated with the compounds for 20-25 minutes and then Ca^++ concentration response curves re-established. […] Dose ratios were determined graphically at ED50 values from the Ca^++ dose-response curve and Schild plots were constructed to determine pA2 value using inverse regression line analysis. Alternatively, when only one concentration of an antagonist was used, pA2 values were calculated according to the method of J. M. Van Rossum, Arch. Int. Pharmacodyn Ther. 143: 299-330 (1963).

[4] = system: [3H]nitrendipine binding in rat cerebral cortical and cardiac homogenates; conditions: cited from earlier work
[5] = system: adenylate cyclase; conditions: a number of tissues; cited from earlier work
[6] = system: isolated guinea pig hearts; conditions: cited from earlier work
[7] = system: calcium currents; conditions: potency compared with diltiazem; cited from earlier work

T1 sequence (P22002 whole entry, other chains not shown): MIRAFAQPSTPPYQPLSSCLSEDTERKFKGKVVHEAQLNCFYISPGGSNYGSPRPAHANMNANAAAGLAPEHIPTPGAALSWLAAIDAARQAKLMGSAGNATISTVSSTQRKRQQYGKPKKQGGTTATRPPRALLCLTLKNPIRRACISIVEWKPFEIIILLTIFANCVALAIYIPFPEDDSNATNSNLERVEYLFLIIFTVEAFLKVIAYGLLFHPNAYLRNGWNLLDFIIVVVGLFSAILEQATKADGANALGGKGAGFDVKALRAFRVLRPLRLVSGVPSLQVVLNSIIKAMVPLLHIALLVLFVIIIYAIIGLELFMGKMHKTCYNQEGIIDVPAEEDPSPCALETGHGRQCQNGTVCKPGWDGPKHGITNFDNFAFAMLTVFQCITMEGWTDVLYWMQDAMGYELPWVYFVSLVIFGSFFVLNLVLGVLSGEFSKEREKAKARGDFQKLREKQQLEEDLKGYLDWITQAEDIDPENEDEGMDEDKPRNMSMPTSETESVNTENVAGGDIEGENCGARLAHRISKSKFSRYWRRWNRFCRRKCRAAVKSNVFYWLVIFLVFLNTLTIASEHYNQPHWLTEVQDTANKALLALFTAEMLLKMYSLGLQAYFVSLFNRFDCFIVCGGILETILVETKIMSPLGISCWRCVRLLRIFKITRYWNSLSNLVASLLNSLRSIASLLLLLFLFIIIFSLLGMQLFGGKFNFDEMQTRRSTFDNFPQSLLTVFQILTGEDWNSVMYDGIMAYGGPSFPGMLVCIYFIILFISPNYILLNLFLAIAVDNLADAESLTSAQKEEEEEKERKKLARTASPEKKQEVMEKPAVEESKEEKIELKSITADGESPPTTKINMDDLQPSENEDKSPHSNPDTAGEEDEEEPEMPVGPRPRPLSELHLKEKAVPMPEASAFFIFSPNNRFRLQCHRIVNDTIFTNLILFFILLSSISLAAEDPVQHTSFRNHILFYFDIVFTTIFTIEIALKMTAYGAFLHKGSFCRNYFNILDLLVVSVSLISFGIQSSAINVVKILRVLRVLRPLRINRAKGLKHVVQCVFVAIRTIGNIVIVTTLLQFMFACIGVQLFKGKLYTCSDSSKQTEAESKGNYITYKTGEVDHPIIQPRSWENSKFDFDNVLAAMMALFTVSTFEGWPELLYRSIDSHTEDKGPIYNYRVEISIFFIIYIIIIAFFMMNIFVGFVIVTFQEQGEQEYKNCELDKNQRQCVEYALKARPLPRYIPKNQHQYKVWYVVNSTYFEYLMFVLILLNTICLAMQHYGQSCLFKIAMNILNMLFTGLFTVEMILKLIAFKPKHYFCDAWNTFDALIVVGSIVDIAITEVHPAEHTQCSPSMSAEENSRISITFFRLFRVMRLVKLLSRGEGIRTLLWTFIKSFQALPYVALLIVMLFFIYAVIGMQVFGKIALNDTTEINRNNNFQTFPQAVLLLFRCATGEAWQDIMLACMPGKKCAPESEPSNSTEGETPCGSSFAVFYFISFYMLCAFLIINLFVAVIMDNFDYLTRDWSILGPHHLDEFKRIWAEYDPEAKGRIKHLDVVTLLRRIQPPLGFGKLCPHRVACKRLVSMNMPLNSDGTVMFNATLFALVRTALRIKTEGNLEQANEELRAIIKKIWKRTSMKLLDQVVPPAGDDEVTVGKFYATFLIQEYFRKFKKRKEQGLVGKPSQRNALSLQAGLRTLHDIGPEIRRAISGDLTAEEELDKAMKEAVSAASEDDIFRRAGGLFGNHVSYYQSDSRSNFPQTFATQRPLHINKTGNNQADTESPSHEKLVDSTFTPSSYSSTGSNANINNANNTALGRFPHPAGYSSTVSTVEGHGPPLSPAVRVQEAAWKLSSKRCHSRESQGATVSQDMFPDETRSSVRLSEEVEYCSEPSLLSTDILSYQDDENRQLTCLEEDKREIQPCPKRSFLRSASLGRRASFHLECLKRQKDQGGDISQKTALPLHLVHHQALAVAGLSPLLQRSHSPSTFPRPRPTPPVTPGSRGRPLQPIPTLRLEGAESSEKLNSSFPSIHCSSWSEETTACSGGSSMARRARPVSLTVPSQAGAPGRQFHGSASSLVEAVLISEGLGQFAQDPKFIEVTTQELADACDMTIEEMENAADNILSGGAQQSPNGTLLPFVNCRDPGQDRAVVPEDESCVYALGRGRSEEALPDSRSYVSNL
T1 sequence (P54290 25-945 partner limits assumed, other chains not shown): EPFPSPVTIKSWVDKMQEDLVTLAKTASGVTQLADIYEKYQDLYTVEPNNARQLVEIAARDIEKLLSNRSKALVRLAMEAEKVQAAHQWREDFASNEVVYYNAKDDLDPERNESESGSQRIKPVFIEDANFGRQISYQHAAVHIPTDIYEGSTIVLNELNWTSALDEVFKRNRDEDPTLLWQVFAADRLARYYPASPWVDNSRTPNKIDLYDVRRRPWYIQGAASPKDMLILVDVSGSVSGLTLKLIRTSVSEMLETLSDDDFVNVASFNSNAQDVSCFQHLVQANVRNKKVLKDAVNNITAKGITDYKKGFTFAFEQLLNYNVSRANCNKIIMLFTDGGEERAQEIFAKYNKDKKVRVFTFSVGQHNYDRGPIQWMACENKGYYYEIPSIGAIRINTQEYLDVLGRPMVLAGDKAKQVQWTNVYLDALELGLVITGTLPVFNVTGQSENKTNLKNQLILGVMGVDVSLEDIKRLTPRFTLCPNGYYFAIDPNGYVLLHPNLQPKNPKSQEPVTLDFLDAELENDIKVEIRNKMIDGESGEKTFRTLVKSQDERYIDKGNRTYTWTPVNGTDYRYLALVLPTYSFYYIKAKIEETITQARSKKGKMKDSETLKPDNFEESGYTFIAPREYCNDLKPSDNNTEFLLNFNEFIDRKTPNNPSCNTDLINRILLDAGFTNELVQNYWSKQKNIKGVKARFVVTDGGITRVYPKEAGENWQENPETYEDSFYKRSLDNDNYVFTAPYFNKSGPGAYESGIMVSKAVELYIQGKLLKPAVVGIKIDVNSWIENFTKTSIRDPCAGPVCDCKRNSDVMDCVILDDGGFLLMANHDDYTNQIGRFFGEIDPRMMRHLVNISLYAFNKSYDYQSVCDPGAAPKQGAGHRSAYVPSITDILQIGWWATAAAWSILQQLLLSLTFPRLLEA
T1 sequence (P54290 946-1091 partner limits assumed, other chains not shown): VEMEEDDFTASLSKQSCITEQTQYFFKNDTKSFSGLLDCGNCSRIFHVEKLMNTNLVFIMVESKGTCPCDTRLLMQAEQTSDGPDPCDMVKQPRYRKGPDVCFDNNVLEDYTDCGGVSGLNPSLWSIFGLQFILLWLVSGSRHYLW

c1ccc([C@H]2CCC[C@H]2N=C2CCCCCCCCCCCN2)cc1 (relative stereo) [Test Compound 3, 2-[(cis-2-phenylcyclopentyl)imino]azacyclotridecane]
IC50 ([1]; 25° C.): 0.28 ± 0.03 µM | IC50 ([1]; 37° C.): 0.403 ± 0.077 µM | pKi ([1]; Table 1, displacement of 3H diltiazem, rat brain membranes, 25° C., n = 3, Cheng & Prusoff): 6.41 | activity at 1 µM ([2]; 25° C.): 112 ± 2% | activity at 0.1 µM ([2]; 25° C.): 102 ± 1% | activity at 1 µM ([2]; 37° C.): 165 ± 13% | activity at 0.1 µM ([2]; 37° C.): 141 ± 8% | mean pA2 value (95% confidence interval), Schild plot [3]: 6.66 (6.31-7.44) | mean slope (±S.D.) of Schild plot [3]: 0.89 (0.16) | effect on [3H]nitrendipine binding [4]: enhanced [3H]nitrendipine binding in rat cerebral cortical and cardiac homogenates in a similar manner to diltiazem | inhibition of stimulated adenylate cyclase activity [5]: inhibit stimulated adenylate cyclase activity in a number of tissues | reversal of inotropic and chronotropic effects by calcium ([6]; administration of calcium): reversed by the administration of calcium | inotropic and chronotropic effects [6]: negative inotropic and chronotropic effects | effect on calcium currents [7]: selectively reduced calcium currents with a potency similar to diltiazem
